Holding throughout (type): biochemical
The target in one assay is PDE1A (Homo sapiens, UniProt P54750). The experiment in a line: PDE1 inhibition assay (PDE1A). To be noted: 15 nM tritium labelled cAMP, SPA. As for the experimental part: (§1) PDE1A, PDE1B and PDE1C assays were performed as follows: the assays were performed in 60 μL samples containing a fixed amount of the PDE1 enzyme (sufficient to convert 20-25% of the cyclic nucleotide substrate), a buffer (50 mM HEPES (4-(2-hydroxyethyl)-1-piperazineethanesulfonic acid) pH 7.6; 10 mM MgCl2; 0.02% Tween20), 0.1 mg/ml BSA (bovine serum albumin), 15 nM tritium labelled cAMP and varying amounts of inhibitors. Reactions were initiated by addition of the cyclic nucleotide substrate, and reactions were allowed to proceed for 1 hr at room temperature before being terminated through mixing with 20 μL (0.2 mg) yttrium silicate SPA beads (PerkinElmer). The beads were allowed to settle for 1 hour in the dark before the plates were counted in a Wallac 1450 Microbeta counter. The measured signals were converted to activity relative to an uninhibited control (100%) and IC50 values were calculated using XlFit (model 205, IDBS).

A further assay addresses PDE1B (Homo sapiens, UniProt Q01064). The experiment in a line: PDE1 inhibition assay (PDE1B). To be noted: 15 nM tritium labelled cAMP, SPA. As for the experimental part:
as §1

The next assay concerns the target PDE1C (Homo sapiens, UniProt Q14123). The experiment in a line: PDE1 inhibition assay (PDE1C). As to conditions: 15 nM tritium labelled cAMP, SPA. As for the experimental part:
as §1

Another assay deals with PDE9 (Homo sapiens, UniProt O76083). The experiment in a line: PDE9 inhibition assay. To be noted: 10 μM of inhibitor. As for the experimental part: A PDE9 assay may for example, be performed as follows: The assay is performed in 60 μL samples containing a fixed amount of the relevant PDE enzyme (sufficient to convert 20-25% of the cyclic nucleotide substrate), a buffer (50 mM HEPES pH 7.6; 10 mM MgCl2; 0.02% Tween20), 0.1 mg/ml BSA, 225 pCi of ^3H-labelled cyclic nucleotide substrate, tritium labeled cAMP to a final concentration of 5 nM and varying amounts of inhibitors. Reactions are initiated by addition of the cyclic nucleotide substrate, and reactions are allowed to proceed for one hr at room temperature before being terminated through mixing with 15 μL 8 mg/mL yttrium silicate SPA beads (Amersham). The beads are allowed to settle for one hr in the dark before the plates are counted in a Wallac 1450 Microbeta counter. The measured signal can be converted to activity relative to an uninhibited control (100%) and IC50 values can be calculated using the Xlfit extension to EXCEL.
In the context of the present invention the assay was performed in 60 μL assay buffer (50 mM HEPES pH 7.6; 10 mM MgCl2; 0.02% Tween20) containing enough PDE9 to convert 20-25% of 10 nM ^3H-cAMP, and […] 10 μM of inhibitor. Following 1 hr incubation the reactions were terminated by addition of 15 μL 8 mg/mL yttrium silicate SPA beads (Amersham). The beads were allowed to settle for one hr in the dark before the plates were counted in a Wallac 1450 Microbeta counter.

SMILES strings stand for the structures.

PDE1A, sequence (P54750 whole entry): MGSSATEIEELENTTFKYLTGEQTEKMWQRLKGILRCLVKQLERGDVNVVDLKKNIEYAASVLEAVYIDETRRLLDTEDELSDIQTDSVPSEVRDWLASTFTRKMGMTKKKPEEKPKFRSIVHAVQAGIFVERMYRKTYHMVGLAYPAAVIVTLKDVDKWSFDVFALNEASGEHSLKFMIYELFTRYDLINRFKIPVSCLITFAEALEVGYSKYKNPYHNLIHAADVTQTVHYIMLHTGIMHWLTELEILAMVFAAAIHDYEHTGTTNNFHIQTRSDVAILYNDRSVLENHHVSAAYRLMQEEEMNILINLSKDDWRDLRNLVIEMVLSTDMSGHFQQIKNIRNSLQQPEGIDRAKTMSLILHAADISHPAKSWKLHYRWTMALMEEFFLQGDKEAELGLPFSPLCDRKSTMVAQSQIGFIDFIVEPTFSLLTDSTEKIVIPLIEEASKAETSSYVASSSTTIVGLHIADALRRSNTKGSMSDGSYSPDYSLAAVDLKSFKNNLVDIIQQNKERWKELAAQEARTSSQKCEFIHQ
PDE1B, sequence (Q01064 whole entry): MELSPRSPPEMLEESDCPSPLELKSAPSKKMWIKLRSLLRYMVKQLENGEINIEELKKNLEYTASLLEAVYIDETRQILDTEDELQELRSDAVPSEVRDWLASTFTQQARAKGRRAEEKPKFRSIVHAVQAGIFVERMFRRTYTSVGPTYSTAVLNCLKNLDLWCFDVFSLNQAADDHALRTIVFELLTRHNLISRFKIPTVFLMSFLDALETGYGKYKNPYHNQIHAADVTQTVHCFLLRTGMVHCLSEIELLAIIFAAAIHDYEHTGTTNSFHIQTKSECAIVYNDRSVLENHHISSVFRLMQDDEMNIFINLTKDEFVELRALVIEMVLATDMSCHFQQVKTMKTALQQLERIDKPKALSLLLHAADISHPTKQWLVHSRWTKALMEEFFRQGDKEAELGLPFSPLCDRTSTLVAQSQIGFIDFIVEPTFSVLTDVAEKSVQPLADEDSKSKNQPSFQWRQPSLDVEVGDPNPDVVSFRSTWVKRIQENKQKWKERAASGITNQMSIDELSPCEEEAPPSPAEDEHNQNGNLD
PDE9, sequence (O76083 whole entry): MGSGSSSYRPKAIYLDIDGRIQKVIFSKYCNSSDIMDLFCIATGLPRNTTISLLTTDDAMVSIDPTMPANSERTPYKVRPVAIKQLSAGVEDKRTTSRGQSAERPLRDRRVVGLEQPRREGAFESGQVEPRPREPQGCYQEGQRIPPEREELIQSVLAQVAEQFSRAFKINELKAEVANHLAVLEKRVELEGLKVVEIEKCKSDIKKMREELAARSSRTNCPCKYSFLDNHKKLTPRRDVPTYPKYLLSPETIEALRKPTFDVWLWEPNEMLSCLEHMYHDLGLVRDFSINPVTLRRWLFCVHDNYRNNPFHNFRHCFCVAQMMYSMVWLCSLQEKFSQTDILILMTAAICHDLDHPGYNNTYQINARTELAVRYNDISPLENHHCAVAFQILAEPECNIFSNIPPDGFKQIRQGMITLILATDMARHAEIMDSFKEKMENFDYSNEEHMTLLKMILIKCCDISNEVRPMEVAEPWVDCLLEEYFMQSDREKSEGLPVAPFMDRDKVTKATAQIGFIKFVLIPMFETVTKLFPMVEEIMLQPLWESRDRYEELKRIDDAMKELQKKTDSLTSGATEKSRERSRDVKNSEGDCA
PDE1C, sequence (Q14123 whole entry): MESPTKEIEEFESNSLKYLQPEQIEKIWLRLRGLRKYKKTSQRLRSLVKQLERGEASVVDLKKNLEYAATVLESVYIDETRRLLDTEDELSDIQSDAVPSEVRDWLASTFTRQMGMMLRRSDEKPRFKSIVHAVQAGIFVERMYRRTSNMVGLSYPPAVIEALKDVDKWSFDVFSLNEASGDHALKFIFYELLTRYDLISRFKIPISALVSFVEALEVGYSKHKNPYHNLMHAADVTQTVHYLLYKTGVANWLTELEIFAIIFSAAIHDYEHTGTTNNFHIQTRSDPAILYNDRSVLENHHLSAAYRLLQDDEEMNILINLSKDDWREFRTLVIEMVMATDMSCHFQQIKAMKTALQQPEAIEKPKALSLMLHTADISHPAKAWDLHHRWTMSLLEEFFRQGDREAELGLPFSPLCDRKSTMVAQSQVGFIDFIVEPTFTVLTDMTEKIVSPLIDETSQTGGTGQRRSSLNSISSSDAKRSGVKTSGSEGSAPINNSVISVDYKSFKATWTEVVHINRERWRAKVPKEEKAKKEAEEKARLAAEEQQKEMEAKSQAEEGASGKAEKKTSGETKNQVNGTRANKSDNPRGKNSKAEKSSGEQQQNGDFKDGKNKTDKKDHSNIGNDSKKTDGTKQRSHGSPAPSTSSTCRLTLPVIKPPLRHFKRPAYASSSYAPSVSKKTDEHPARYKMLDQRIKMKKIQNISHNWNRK

One may read the IC50 as the concentration at which inhibition is half-maximal. With `CC1OCCC1c1ncc2c(=O)n(C)c(Cc3ccc(-c4cccc(F)n4)cc3)cn12` (single isomer, unassigned; isomer 4) [Example 32, 6-(4-(6-fluoropyridin-2-yl)benzyl)-7-methyl-3-(2-methyltetrahydrofuran-3-yl)imidazo[1,5-a]pyrazin-8(7H)-one, Isomer 4], the IC50 at PDE1A was determined as 5.8 nM; against PDE1B it was 1.3 nM; against PDE1C, 9.2 nM. The “PDE9 Inhibition at 10 μM (%)” value at PDE9 came out at 5%.

In the case of `CC1OCCC1c1ncc2c(=O)n(C)c(Cc3ccc(-c4cccc(F)n4)cc3)cn12` (single isomer, unassigned; isomer 2) [Example 30, 6-(4-(6-fluoropyridin-2-yl)benzyl)-7-methyl-3-(2-methyltetrahydrofuran-3-yl)imidazo[1,5-a]pyrazin-8(7H)-one, Isomer 2], the IC50 is 70 nM on PDE1A, 71 nM at PDE1B and 148 nM against PDE1C. The “PDE9 Inhibition at 10 μM (%)” value at PDE9 is on record as −2%.

The term inhibition denotes the relative decrease from the control value, in per cent. Regarding `Cc1ccccc1-c1ccc(Cc2cn3c(C4CCOCC4)ncc3c(=O)n2C)cc1` [Example 18, 7-methyl-6-[[4-(o-tolyl)phenyl]methyl]-3-tetrahydropyran-4-yl-imidazo[1,5-a]pyrazin-8-one], the IC50 on PDE1A was determined as 117 nM; against PDE1B it was 23 nM; against PDE1C, 238 nM. Moreover, the inhibition at 10 µM on PDE9 came out at 9%.

With `CCn1c(Cc2ccc(-c3ccccn3)cc2)cn2c(C3CCOCC3)ncc2c1=O` [Example 12, 7-ethyl-6-[[4-(2-pyridyl)phenyl]methyl]-3-tetrahydropyran-4-yl-imidazo[1,5-a]pyrazin-8-one], the IC50 on PDE1A worked out at 12 nM; on PDE1B it was 3.1 nM; at PDE1C, 26 nM. For the same molecule, the inhibition at 10 µM at PDE9 turned out to be 4%.

On to `Cn1c(Cc2ccc(-c3ccccn3)cc2)nc2c(cnn2C2CCOCC2)c1=O` [Example 2, 5-methyl-6-[[4-(2-pyridyl)phenyl]methyl]-1-tetrahydropyran-4-yl-pyrazolo[3,4-d]pyrimidin-4-one], for which the IC50 on PDE1A was 390 nM; against PDE1B, 92 nM; against PDE1C it was 530 nM. The inhibition at 10 µM against PDE9 is 5%.

In the case of `CC1OCCC1c1ncc2c(=O)n(C)c(Cc3ccc(-c4cccc(F)n4)cc3)cn12` (single isomer, unassigned; isomer 3) [Example 31, 6-(4-(6-fluoropyridin-2-yl)benzyl)-7-methyl-3-(2-methyltetrahydrofuran-3-yl)imidazo[1,5-a]pyrazin-8(7H)-one, Isomer 3], the IC50 at PDE1A is 18 nM; against PDE1B, 4 nM; on PDE1C it was 45 nM. At PDE9, the “PDE9 Inhibition at 10 μM (%)” value is on record as 10%.

In the case of `Cn1c(Cc2ccc(-c3cnccn3)cc2)cn2c(C3CCOCC3)ncc2c1=O` [Example 24, 7-methyl-6-(4-(pyrazin-2-yl)benzyl)-3-(tetrahydro-2H-pyran-4-yl)imidazo[1,5-a]pyrazin-8(7H)-one], the IC50 on PDE1A was determined as 91 nM; on PDE1B, 30 nM; on PDE1C, 198 nM. Besides, at PDE9, the inhibition at 10 µM is -2%.

As to `CCCc1ncc2c(=O)n(C)c(Cc3ccc(-c4cccc(F)n4)cc3)cn12` [Example 22, 6-(4-(6-fluoropyridin-2-yl)benzyl)-7-methyl-3-propylimidazo[1,5-a]pyrazin-8(7H)-one], the IC50 against PDE1A stood at 168 nM; on PDE1B, 40 nM; against PDE1C it was 310 nM. Further, the inhibition at 10 µM against PDE9 was determined as 2%.

For `COc1ccc(Cn2c(Cc3ccc(-c4ccccn4)cc3)cn3c(C4CCOCC4)ncc3c2=O)cc1` [Example 9, 7-[(4-methoxyphenyl)methyl]-6-[[4-(2-pyridyl)phenyl]methyl]-3-tetrahydropyran-4-yl-imidazo[1,5-a]pyrazin-8-one], the IC50 is 0.29 nM against PDE1A, 0.19 nM against PDE1B and 0.38 nM against PDE1C. Besides, at PDE9, the inhibition at 10 µM was 39%.

Take `COc1cccc(-c2ccc(Cc3cn4c(C5CCOCC5)ncc4c(=O)n3C)cc2)n1` [Example 16, 6-[[4-(6-methoxy-2-pyridyl)phenyl]methyl]-7-methyl-3-tetrahydropyran-4-yl-imidazo[1,5-a]pyrazin-8-one]: the values for the IC50 at PDE1A, at PDE1B and at PDE1C were 24 nM, 4.7 nM and 42 nM, respectively. Besides, the inhibition at 10 µM on PDE9 turned out to be 7%.

As to `Cn1c(Cc2ccc(-c3cccc(F)n3)cc2)nc2c(cnn2C2CCOCC2)c1=O` [Example 4, 6-[[4-(6-fluoro-2-pyridyl)phenyl]methyl]-5-methyl-1-tetrahydropyran-4-yl-pyrazolo[3,4-d]pyrimidin-4-one], the IC50 on PDE1A was 180 nM; at PDE1B, 57 nM; at PDE1C it was 2100 nM. Besides, the inhibition at 10 µM at PDE9 came to 17%.

Take `CC1OCCC1c1ncc2c(=O)n(C)c(Cc3ccc(-c4cccc(F)n4)cc3)cn12` (single isomer, unassigned; isomer 1) [Example 29, 6-(4-(6-fluoropyridin-2-yl)benzyl)-7-methyl-3-(2-methyltetrahydrofuran-3-yl)imidazo[1,5-a]pyrazin-8(7H)-one, Isomer 1]: the IC50 against PDE1A was 61 nM; at PDE1B, 24 nM; against PDE1C, 104 nM. Besides, the “PDE9 Inhibition at 10 μM (%)” value at PDE9 is given as 4%.

As to `Cn1c(Cc2ccc(-c3cccc(C(F)F)n3)cc2)cn2c(C3CCOCC3)ncc2c1=O` [Example 15, 6-[[4-[6-(difluoromethyl)-2-pyridyl]phenyl]methyl]-7-methyl-3-tetrahydropyran-4-yl-imidazo[1,5-a]pyrazin-8-one], the IC50 on PDE1A came to 58 nM; at PDE1B it was 14 nM; at PDE1C, 87 nM. For the same molecule, the inhibition at 10 µM against PDE9 worked out at 6%.

For the molecule `Cn1c(Cc2ccc(-c3cccc(F)n3)cc2)cc2c(cnn2C2CCOCC2)c1=O` [Example 5, 6-[[4-(6-fluoro-2-pyridyl)phenyl]methyl]-5-methyl-1-tetrahydropyran-4-yl-pyrazolo[4,3-c]pyridin-4-one], the IC50 at PDE1A was 120 nM; against PDE1B, 20 nM; against PDE1C it was 190 nM. Further, the inhibition at 10 µM against PDE9 stood at 3%.

On to `Cn1c(Cc2ccc(-c3cccc(F)n3)cc2)cn2c(C3CCOC3)ncc2c1=O` (single isomer, unassigned; isomer 2) [Example 28, 6-(4-(6-fluoropyridin-2-yl)benzyl)-7-methyl-3-(tetrahydrofuran-3-yl)imidazo[1,5-a]pyrazin-8(7H)-one, Isomer 2], for which the IC50 was 71 nM at PDE1A, 26 nM at PDE1B and 111 nM at PDE1C. Further, the “PDE9 Inhibition at 10 μM (%)” value on PDE9 stood at 6%.

Turning to `Cn1c(Cc2ccc(-c3cccc(F)n3)cc2)cn2c(C3CCOCC3)ncc2c1=O` [Example 14, 6-[[4-(6-fluoro-2-pyridyl)phenyl]methyl]-7-methyl-3-tetrahydropyran-4-yl-imidazo[1,5-a]pyrazin-8-one], the IC50 worked out at 62 nM against PDE1A, 5.2 nM against PDE1B and 67 nM against PDE1C. The inhibition at 10 µM against PDE9 is 14%.

Turning to `Cn1c(Cc2ccc(-c3ccccn3)cc2)cn2c(C3CCOCC3)ncc2c1=O` [Example 11, 7-methyl-6-[[4-(2-pyridyl)phenyl]methyl]-3-tetrahydropyran-4-yl-imidazo[1,5-a]pyrazin-8-one], the IC50 amounted to 30 nM at PDE1A, 3.5 nM at PDE1B and 120 nM against PDE1C. Further, the inhibition at 10 µM at PDE9 was -10%.

Consider `Cc1cccc(-c2ccc(Cc3cn4c(C5CCOCC5)ncc4c(=O)n3C)cc2)n1` [Example 13, 7-methyl-6-[[4-(6-methyl-2-pyridyl)phenyl]methyl]-3-tetrahydropyran-4-yl-imidazo[1,5-a]pyrazin-8-one], for which the figures for the IC50 against PDE1A, against PDE1B and against PDE1C were 81 nM, 14 nM and 80 nM, respectively. The inhibition at 10 µM against PDE9 is 18%.

As to `COc1cccnc1-c1ccc(Cc2cn3c(C4CCOCC4)ncc3c(=O)n2C)cc1` [Example 17, 6-[[4-(3-methoxy-2-pyridyl)phenyl]methyl]-7-methyl-3-tetrahydropyran-4-yl-imidazo[1,5-a]pyrazin-8-one], the figures for the IC50 against PDE1A, at PDE1B and against PDE1C were 87 nM, 21 nM and 161 nM, respectively. The inhibition at 10 µM against PDE9 amounted to 2%.

Source of the values: patent US10633382B2, “Imidazopyrazinones, pyrazolopyrimidinones and pyrazolopyridinones as PDE1 inhibitors” (H. Lundbeck A/S, priority 2016, dated 2020).
